Test results taken from patent publication US11371055B2, “Herbicide resistance genes” (CORTEVA AGRISCIENCE LLC, priority 2005, dated 2022).
Values joined by “and” are separate entries in the source; they are usually repeats but may differ in a detail not shown here. Equal values may be shown once.

Legend:
[1] = system: wildtype Maverick soybeans; test: 2,4-D spray application on wildtype soybean; type: in vivo, Glycine max
Text: Plants that are transferred to the greenhouse can be assayed for the presence of an active PAT gene further with a non-destructive manner by painting a section of leaf of the T0 primary transformant, or progeny thereof, with a glufosinate solution [0.05-2% v/v Liberty Herbicide, preferably 0.25-1.0% (v/v),=500-2000 ppm glufosinate, Bayer Crop Science]. Depending on the concentration used, assessment for glufosinate injury can be made 1-7 days after treatment. Plants can also be tested for 2,4-D tolerance in a non-destructive manner by selective application of a 2,4-D solution in water (0.25-1% v/v commercial 2,4-D dimethylamine salt formulation, preferably 0.5% v/v=2280 ppm 2,4-D ae) to the terminal leaflet of the newly expanding trifoliolate one or two, preferably two, nodes below the youngest emerging trifolioate. This assay allows assessment of 2,4-D sensitive plants 6 hours to several days after application by assessment of leaf flipping or rotation >90 degrees from the plane of the adjacent leaflets. Plants tolerant to 2,4-D will not respond to 2,4-D. To plants will be allowed to self fertilize in the greenhouse to give rise to T1 seed. T1 plants (and to the extent enough T0 plant clones are produced) will be sprayed with a range of herbicide doses to determine the level of herbicide protection afforded by AAD-12 (v1) and PAT genes in transgenic soybean. Rates of 2,4-D used on T0 plants will typically comprise one or two selective rates in the range of 100-1120 g ae/ha using a track sprayer as previously described. T1 plants will be treated with a wider herbicide dose ranging from 50-3200 g ae/ha 2,4-D. Likewise, T0 and T1 plants can be screened for glufosinate resistance by postemergence treatment with 200-800 and 50-3200 g ae/ha glufosinate, respectively. Glyphosate resistance (in plants transformed with constructs that contain EPSPS) or another glyphosate tolerance gene can be assessed in the T1 generation by postemergence applications of glyphosate with a dose range from 280-2240 g ae/ha glyphosate. Analysis of protein expression will occur as described in below. Individual T0 plants were assessed for the presence of the coding region of the gene of interest (AAD-12 (v1) or PAT v6) and copy number. Determination of the inheritance of AAD-12 (v1) will be made using T1 and T2 progeny segregation with respect to herbicide tolerance as described in previous examples.
The screened plants were then sampled for molecular and biochemical analyses for the confirmation of the AAD12 (v1) genes integration, copy number, and their gene expression levels as described below and reported in Table 25.

[2] = system: T4 Arabidopsis seed homozygous for AAD-12 (v1) spiked into wildtype (sensitive) seed; test: AAD-12 (v1) as selectable marker with 2,4-D as selection agent; type: in vivo, Arabidopsis thaliana; details: applied 7 and 11 days after planting (DAP); Resistant or Sensitive identified 17 DAP
Method: The ability to use AAD-12 (v1) as a selectable marker using 2,4-D as the selection agent was analyzed initially with Arabidopsis transformed as described above. Approximately 50 T4 generation Arabidopsis seed (homozygous for AAD-12 (v1)) were spiked into approximately 5,000 wildtype (sensitive) seed. Several treatments were compared, each tray of plants receiving either one or two application timings of 2,4-D in one of the following treatment schemes: 7 DAP, 11 DAP, or 7 followed by 11 DAP. Since all individuals also contained the PAT gene in the same transformation vector, AAD-12 selected with 2,4-D could be directly compared to PAT selected with glufosinate.
Treatments were applied with a DeVilbiss spray tip as previously described. Plants were identified as Resistant or Sensitive 17 DAP.

[3] = system: AAD-12 (v1) transformed T0 tobacco events (pDAS1580); test: Postemergence herbicide tolerance in T0 tobacco; type: in vivo, Nicotiana tabacum; details: 560 g ae/ha fluroxypyr
Text: T0 plants from each of the 19 events were challenged with a wide range of 2,4-D, triclopyr, or fluroxypyr sprayed on plants that were 3-4 inches tall. Spray applications were made as previously described using a track sprayer at a spray volume of 187 L/ha. 2,4-D dimethylamine salt (Riverside Corp) was applied at 0, 140, 560, or 2240 g ae/ha to representative clones from each event mixed in deionized water. Fluroxypyr was likewise applied at 35, 140, or 560 g ac/ha. Triclopyr was applied at 70, 280, or 1120 g ae/ha. Each treatment was replicated 1-3 times. Injury ratings were recorded 3 and 14 DAT. Every event tested was more tolerant to 2,4-D than the untransformed control line KY160. In several events, some initial auxinic herbicide-related epinasty occurred at doses of 560 g ae/ha 2,4-D or less. Some events were uninjured at 2,4-D applied at 2240 g ac/ha (equivalent to 4× field rate). On the whole, AAD-12 (v1) events were more sensitive to fluroxypyr, followed by triclopyr, and least affected by 2,4-D. The quality of the events with respect to magnitude of resistance was discerned using T0 plant responses to 560 g ae/ha fluroxypyr. Events were categorized into “low” (>40% injury 14 DAT), “medium” (20-40% injury), “high” (<20% injury). Some events were inconsistent in response among replicates and were deemed “variable.”

[4] = Maverick WT individual plants (WT-5, WT-6, WT-7), spray 560 g ae/ha 2,4-D
[5] = Maverick WT individual plants (WT-10, WT-8, WT-9), spray 1120 g ae/ha 2,4-D

Which “response to herbicide spray application” value ([1]; 560 g ae/ha 2,4-D, 7-14 DAT) does the source give for `O=C(O)COc1ccc(Cl)cc1Cl` [2,4-D, 2,4-dichlorophenoxyacetic acid] here?
Its value is “severely injured”.

What about the “response to herbicide spray application” value ([1]; 1120 g ae/ha 2,4-D) of the same molecule?
The value was “killed”.

And the “% injury 2 DAT” value [1, 4]?
The value was 50% and 70% (2×).

What about the “% injury 7 DAT” value [1, 4] of the same molecule?
The value was 60% and 90% and 80%.

And the “% injury 14 DAT” value [1, 4]?
The value was 60% and 80% (2×).

And the “% injury 2 DAT” value [1, 5]?
The value was 70%.

And the “% injury 7 DAT” value [1, 5]?
The value was 90% and 95% (2×).

What about the “% injury 14 DAT” value [1, 5] of the same molecule?
Its value is 100%.

What about the “optimum treatment for selection of transformed plants” value [2] of the same molecule?
Its value is 75 g ae/ha.

What does the source list for `Nc1c(Cl)c(F)nc(OCC(=O)O)c1Cl` [Fluroxypyr]?
Relative Herbicide Tolerance ([3]; T0 event 1580[1]-004): High; Relative Herbicide Tolerance ([3]; T0 event 1580[1]-005): Variable; Relative Herbicide Tolerance ([3]; T0 event 1580[1]-008): Variable; Relative Herbicide Tolerance ([3]; T0 event 1580[1]-011): High; Relative Herbicide Tolerance ([3]; T0 event 1580[1]-015): High; Relative Herbicide Tolerance ([3]; T0 event 1580[1]-016): High; Relative Herbicide Tolerance ([3]; T0 event 1580[1]-017): High; Relative Herbicide Tolerance ([3]; T0 event 1580[1]-018): Variable; Relative Herbicide Tolerance ([3]; T0 event 1580[1]-019): Variable; Relative Herbicide Tolerance ([3]; T0 event 1580[1]-022): Variable; Relative Herbicide Tolerance ([3]; T0 event 1580[1]-023): Variable; Relative Herbicide Tolerance ([3]; T0 event 1580[1]-024): Variable; Relative Herbicide Tolerance ([3]; T0 event 1580[1]-026): Variable; Relative Herbicide Tolerance ([3]; T0 event 1580[1]-027): Low; Relative Herbicide Tolerance ([3]; T0 event 1580[1]-029): Variable; Relative Herbicide Tolerance ([3]; T0 event 1580[1]-030): High; Relative Herbicide Tolerance ([3]; T0 event 1580[1]-031): High; Relative Herbicide Tolerance ([3]; T0 event 1580[1]-032): High
